Here are results for four compounds from article PMC12314070 (Nature Communications, 2025).

Assay [1] concerns A. baumannii BNCC194496-mcr-1. Put plainly: MIC assay. The note with it: Acinetobacter baumannii, BNCC194496MCR1. Format: cell-based.
Assay [2] concerns A. baumannii BNCC 194496. Put plainly: MIC assay. Format: cell-based, Acinetobacter baumannii. The following applies: Table 1, Cip^R.
Assay [3] deals with S. aureus USA 300. Put plainly: MIC assay. Format: cell-based, Staphylococcus aureus. The following applies: Table 1, Met^R, MDR.
Assay [4] has as its system S. aureus BNCC 186335. Put plainly: MIC assay. The following applies: Staphylococcus aureus, BNCC186335, Table 1, Azm^R, Pen^R. In kind it is cell-based.
The test system of assay [5] is E. Coli MG1655-mcr-1. Nature of the assay: Neutropenic thigh infection model. In kind it is in vivo, mice. The following applies: colistin resistant E. coli thigh infection, 20 mg/kg once daily s.c.

Converted amounts (≈) assume the structure as drawn. Positions of bridges follow the written chain, without caps; N, C: chain ends. Non-standard residues stand in square brackets, D forms with d. Residues, ends and D or L forms follow the SMILES beside them. *: point of attachment. X1 = CC[C@H](C)CCCCC(=O)*; Dab = NCC[C@H](N)C(=O)O Where only a bound is given, the exact number is not on record here.

Broadly, the MIC is the lowest concentration found to suppress growth. High values mean a less susceptible organism, low ones a more susceptible organism. On to `CO/N=C(\C(=O)N[C@@H]1C(=O)N2C(C(=O)O)=CCS[C@H]12)c1csc(N)n1` [Ceftizoxime], for which the MIC in assay [1] and in assay [2] was 4 µg/mL (≈ 10.4 µM) each time.
As for `CN[C@H](CC(C)C)C(=O)N[C@H]1C(=O)N[C@@H](CC(N)=O)C(=O)N[C@H]2C(=O)N[C@H]3C(=O)N[C@H](C(=O)N[C@H](C(=O)O)c4cc(O)cc(O)c4-c4cc3ccc4O)[C@H](O)c3ccc(c(Cl)c3)Oc3cc2cc(c3O[C@@H]2O[C@H](CO)[C@@H](O)[C@H](O)[C@H]2O[C@H]2C[C@](C)(N)[C@H](O)[C@H](C)O2)Oc2ccc(cc2Cl)[C@H]1O` [Vancomycin], the MIC was found to be 1 µg/mL (≈ 0.69 µM) in assay [3] and 0.5 µg/mL (≈ 0.345 µM) in assay [4].
In the case of `CC[C@H](C)CCCCC(=O)N[C@@H](CCN)C(=O)N[C@H](C(=O)N[C@@H](CCN)C(=O)N[C@H]1CCNC(=O)[C@H]([C@@H](C)O)NC(=O)[C@H](CCN)NC(=O)[C@H](CCN)NC(=O)[C@H](CC(C)C)NC(=O)[C@@H](CC(C)C)NC(=O)[C@H](CCN)NC1=O)[C@@H](C)O` [Colistin] (X1-[Dab]T[Dab][Dab][Dab][dL]L[Dab][Dab]T; lactam 4-C; N-terminus assumed), the “reduction of bacterial burden” value in assay [5] is given as “no activity”.
Turning to `COc1cccc(OC)c1C(=O)N[C@@H]1C(=O)N2[C@@H]1SC(C)(C)[C@@H]2C(=O)O` [Methicillin], the minimal inhibitory concentration (MIC) in assay [3] was above 64 µg/mL.
